Test results taken from ChEMBL document CHEMBL1157515, “Discovery of a novel class of 2-ureido thiophene carboxamide checkpoint kinase inhibitors” (Bioorg Med Chem Lett, 2008).

Tests used:
[1] = target: T1, Serine/threonine-protein kinase Chk1 (Homo sapiens, UniProt O14757); test: Inhibition of Chk1
T1 sequence (O14757 whole entry): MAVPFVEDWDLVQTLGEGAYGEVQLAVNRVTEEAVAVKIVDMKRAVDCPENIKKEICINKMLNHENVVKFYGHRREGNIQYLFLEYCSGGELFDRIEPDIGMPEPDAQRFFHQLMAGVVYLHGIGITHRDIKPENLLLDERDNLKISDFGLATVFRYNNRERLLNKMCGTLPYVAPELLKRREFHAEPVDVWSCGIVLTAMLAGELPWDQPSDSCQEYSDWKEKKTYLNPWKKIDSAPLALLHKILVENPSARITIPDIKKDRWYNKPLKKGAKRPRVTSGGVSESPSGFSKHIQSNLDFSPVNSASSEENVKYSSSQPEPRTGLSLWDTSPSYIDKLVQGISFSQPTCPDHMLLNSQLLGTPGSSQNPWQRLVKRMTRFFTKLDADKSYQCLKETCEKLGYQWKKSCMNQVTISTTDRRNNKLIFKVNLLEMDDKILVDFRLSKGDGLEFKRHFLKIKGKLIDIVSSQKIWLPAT

HT-29 = test: Abrogation of camptothecin induced cell cycle arrest at G2/M phase in human HT29 cells; assay type: functional, cell-based

Row | SMILES | IC50 [1] [nM] | EC50 (HT-29; Homo sapiens, HT-29) [nM] | EC50 (HT-29; ht-29) [nM]
1 | CNCc1ccc(-c2cc(C(N)=O)c(NC(N)=O)s2)cc1 | > 300 |  | 
2 | CCN(CC)CCOc1ccc(-c2cc(C(=O)Nc3cccc(CO)c3)c(NC(N)=O)s2)cc1 | 50 | > 12500 | 
3 | CN(C)CCOc1ccc(-c2cc(C(N)=O)c(NC(N)=O)s2)cc1 |  | > 12500 | 
4 | COc1ccc(-c2cc(C(N)=O)c(NC(N)=O)s2)cc1 | 5000 |  | 
5 | COCCNCc1ccc(-c2cc(C(N)=O)c(NC(N)=O)s2)cc1 | 72 |  | 
6 | CN(CCO)Cc1ccc(-c2cc(C(N)=O)c(NC(N)=O)s2)cc1 | 31 |  | 
7 | CN(C)CCCOc1ccc(-c2cc(C(N)=O)c(NC(N)=O)s2)cc1 | 230 |  | 
8 | NC(=O)Nc1sc(-c2ccc(OCCN3CCCCC3)cc2)cc1C(N)=O | 230 |  | 
9 | NC(=O)Nc1sc(-c2ccc(OCCOCC3CC3)cc2)cc1C(N)=O | 23000 |  | 
10 | COCCOCCOc1ccc(-c2cc(C(N)=O)c(NC(N)=O)s2)cc1 | 4100 |  | 
11 | NC(=O)Nc1sc(-c2ccc(CNC3CCCC3)cc2)cc1C(N)=O | 39 |  | 
12 | COCCOc1ccc(-c2cc(C(N)=O)c(NC(N)=O)s2)cc1 | 6700 |  | 
13 | CN(CCN)C(=O)c1cc(-c2ccccc2)sc1NC(N)=O | 5500 |  | 
14 | NC(=O)Nc1sc(-c2ccc(O)cc2)cc1C(=O)N[C@H]1CCCNC1 | 7 | 1200 | 
15 | NC(=O)Nc1sc(-c2ccccc2)cc1C(=O)NC1CCOCC1 | 2100 |  | 
16 | NC(=O)Nc1sc(-c2ccccc2F)cc1C(=O)N[C@H]1CCCNC1 | 9 | 80 | 
17 | CNCCNC(=O)c1cc(-c2ccccc2)sc1NC(N)=O | 100 | 580 | 
18 | CN(C)CCNC(=O)c1cc(-c2ccccc2)sc1NC(N)=O | 110 | 4100 | 
19 | CC1(C)CCCC(C)(C)N1Cc1ccc(-c2cc(C(N)=O)c(NC(N)=O)s2)cc1 | 17 |  | 
20 | CCN(CC)CCOc1ccc(-c2cc(C(=O)Nc3cccnc3)c(NC(N)=O)s2)cc1 | 100 | > 12500 | 
21 | CCN(CC)CCOc1ccc(-c2cc(C(=O)NC3CCNC3)c(NC(N)=O)s2)cc1 (configuration not stated) | 100 | > 12500 | 
22 | CCN(CC)CCOc1ccc(-c2cc(C(=O)NC3CCNCC3)c(NC(N)=O)s2)cc1 | 35 | > 12500 | 
23 | NC(=O)Nc1sc(-c2ccccc2)cc1C(=O)NC1CCCCC1 | 3900 |  | 
24 | NC(=O)Nc1sc(-c2ccccc2)cc1C(=O)Nc1ccccc1 | 1000 |  | 

Row | SMILES | IC50 [1] [nM] | EC50 (HT-29; Homo sapiens, HT-29) [nM] | EC50 (HT-29; ht-29) [nM]
25 | N#Cc1ccc(-c2cc(C(=O)N[C@H]3CCCNC3)c(NC(N)=O)s2)cc1 | 6 | 80 | 
26 | NC(=O)Nc1sc(-c2ccc(C(F)(F)F)cc2)cc1C(=O)N[C@H]1CCCNC1 | 19 | 170 | 
27 | NC(=O)Nc1sc(-c2ccc(Cl)cc2)cc1C(=O)N[C@H]1CCCNC1 | 10 | 40 | 
28 | NC(=O)Nc1sc(-c2cccc(C(N)=O)c2)cc1C(=O)N[C@H]1CCCNC1 | 5 | 8100 | 
29 | NC(=O)Nc1sc(-c2ccccc2)cc1C(=O)NCC1CNCCO1 (configuration not stated) | 300 |  | 
30 | NC(=O)Nc1sc(-c2ccccc2)cc1C(=O)NC[C@H]1CCCNC1 | 100 | 2100 | 
31 | NC(=O)Nc1sc(-c2ccccc2)cc1C(=O)NC[C@@H]1CCCNC1 | 100 | 6200 | 
32 | NC(=O)Nc1sc(-c2ccccc2)cc1C(=O)N[C@@H]1CCCCNC1 | 3 | 110 | 
33 | NC(=O)Nc1sc(-c2ccccc2)cc1C(=O)NC1CNCCNC1=O (configuration not stated) | 110 |  | 
34 | NC(=O)Nc1sc(-c2ccccc2)cc1C(=O)N[C@@H]1CN2CCC1CC2 | 130 |  | 
35 | CN1CCC[C@@H](NC(=O)c2cc(-c3ccccc3)sc2NC(N)=O)C1 | 160 | 2300 | 
36 | NC(=O)Nc1sc(-c2ccc(C(=O)N3CCCCC3)cc2)cc1C(=O)N[C@H]1CCCNC1 | 11 | 130 | 
37 | NC(=O)Nc1sc(-c2ccc(N)cc2)cc1C(=O)N[C@H]1CCCNC1 | 13 | 920 | 
38 | CNC(=O)c1ccc(-c2cc(C(=O)N[C@H]3CCCNC3)c(NC(N)=O)s2)cc1 | 9 | 4300 | 
39 | CS(=O)(=O)Nc1ccc(-c2cc(C(=O)N[C@H]3CCCNC3)c(NC(N)=O)s2)cc1 | 41 | 2200 | 
40 | CC(=O)c1ccc(-c2cc(C(=O)N[C@H]3CCCNC3)c(NC(N)=O)s2)cc1 | 7 | 60 | 
41 | COc1ccc(Nc2cc(-c3cccnc3)[nH]n2)cc1OC | 600 |  | 
42 | NC(=O)Nc1sc(-c2cccnc2)cc1C(=O)N[C@H]1CCCNC1 | 6 |  | 300
43 | NC(=O)Nc1sc(-c2ccncc2)cc1C(=O)N[C@H]1CCCNC1 | 4 |  | 340
44 | NC(=O)Nc1sc(-c2ccccc2)cc1C(=O)NC1CCNCC1 | 110 |  | 
45 | CN(C)c1ccc(-c2cc(C(=O)N[C@H]3CCCNC3)c(NC(N)=O)s2)cc1 | 41 | 90 | 
46 | NC(=O)Nc1sc(-c2ccc(C(=O)N3CCOCC3)cc2)cc1C(=O)N[C@H]1CCCNC1 | 10 | 610 | 
47 | CC(=O)Nc1cccc(-c2cc(C(=O)N[C@H]3CCCNC3)c(NC(N)=O)s2)c1 | 8 | 1800 | 
48 | NC(=O)Nc1sc(-c2ccccc2)cc1C(=O)N1CCOCC1 | > 30000 |  | 

Row | SMILES | IC50 [1] [nM] | EC50 (HT-29; Homo sapiens, HT-29) [nM] | EC50 (HT-29; ht-29) [nM]
49 | NC(=O)Nc1sc(-c2ccc(CN3CCCCC3)cc2)cc1C(N)=O | 37 | 270 | 
50 | NCCNC(=O)c1cc(-c2ccccc2)sc1NC(N)=O | 30 | 960 | 
51 | NC(=O)Nc1sc(-c2ccc(OC(F)(F)F)cc2)cc1C(N)=O | 2600 |  | 
52 | COc1ccc(CNCc2ccc(-c3cc(C(N)=O)c(NC(N)=O)s3)cc2)cc1 | 29 |  | 
53 | CNCCOc1ccc(-c2cc(C(N)=O)c(NC(N)=O)s2)cc1 | 360 |  | 
54 | NC(=O)Nc1sc(-c2ccccc2)cc1C(=O)NC1CCCCNC1=O (configuration not stated) | 23000 | > 13000 | 
55 | NC(=O)Nc1sc(-c2ccccc2)cc1C(=O)NCCO | 5100 |  | 
56 | NC(=O)Nc1sc(-c2ccccc2)cc1C(=O)N[C@H]1CN2CCC1CC2 | 980 |  | 
57 | Cc1ccc(-c2cc(C(=O)N[C@H]3CCCNC3)c(NC(N)=O)s2)cc1 | 10 | 70 | 
58 | NC(=O)Nc1sc(-c2cccc(Cl)c2)cc1C(=O)N[C@H]1CCCNC1 | 14 | 40 | 
59 | CN1CCN(Cc2ccc(-c3cc(C(N)=O)c(NC(N)=O)s3)cc2)CC1 | 41 |  | 
60 | NC(=O)Nc1sc(-c2ccccc2)cc1C(=O)NCc1ccccc1 | > 10000 |  | 
61 | NC(=O)Nc1sc(-c2ccc(F)cc2)cc1C(=O)N[C@H]1CCCNC1 | 9 | 30 | 
62 | NC(=O)Nc1sc(-c2cccc(F)c2)cc1C(=O)N[C@H]1CCCNC1 | 11 |  | 20
63 | CN1CCN(C(=O)c2cc(-c3ccccc3)sc2NC(N)=O)CC1 | 7100 |  | 
64 | CCN(CC)CCOc1ccc(-c2cc(C(=O)NC3CCCNC3)c(NC(N)=O)s2)cc1 (configuration not stated) |  | 17 | 
65 | CCN(CC)CCOc1cccc(-c2cc(C(=O)N[C@H]3CCCNC3)c(NC(N)=O)s2)c1 | < 10 | 1100 | 
66 | NC(=O)Nc1sc(-c2ccccc2)cc1C(=O)N[C@@H]1CCCNC1 |  |  | 1900
67 | NC(=O)Nc1sc(-c2ccc(C(N)=O)cc2)cc1C(=O)N[C@H]1CCCNC1 | 5 | 3200 | 
68 | NC(=O)Nc1sc(-c2cccs2)cc1C(=O)N[C@H]1CCCNC1 | 3 | < 8 | 
69 | NC(=O)Nc1sc(-c2ccsc2)cc1C(=O)N[C@H]1CCCNC1 | 6 | < 9 | 
70 | CS(=O)(=O)c1ccc(-c2cc(C(=O)N[C@H]3CCCNC3)c(NC(N)=O)s2)cc1 | 6 | 200 | 
71 | CN(C)C(=O)c1ccc(-c2cc(C(=O)N[C@H]3CCCNC3)c(NC(N)=O)s2)cc1 | 9 | 320 | 
72 | CCN(CC)CCOc1cccc(-c2cc(C(=O)NC3CCCNC3)c(NC(N)=O)s2)c1 (racemic) | 10 | 2600 | 
